In brackets after ≈: the same amount, converted by molar mass. Where two headings read alike, the source gives them in different places. Residues, ends and D or L forms follow the SMILES beside them. *: point of attachment. Octanoyl = CCCCCCCC(=O)*
Key:
E. coli 94393 [1] = experiment: microbe, parasite or virus in culture; assay type: cell-based, Escherichia coli; settings: 94393, 18 h
How it was run: (§1)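 Turbidity at 590 nm defined growth, from which the MIC was taken. Cultures at a final density of 5 × 10^5 CFU/mL were exposed to a range of compound levels at 37 °C for 18 h in a CLSI-based microdilution format.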

E. coli 94474 [2] = experiment: microbe, parasite or virus in culture; assay type: cell-based, Escherichia coli; settings: 94474, 18 h
How it was run: as §1

P. aeruginosa PAO1 = assay type: cell-based, Pseudomonas aeruginosa; settings: for MICUTBLP: UTBLP alone
Procedure: (§2) The synergy of the UTBLPs with various antibiotics was assessed using checkerboard assay as previously described. Briefly, the combination of antibiotic and OMP at varying concentrations were incubated with bacterial inoculum (5 × 10^5 CFU/mL final concentration) at 37 °C for 18 h. Growth in the form of turbidity was confirmed using an EMax Plus microplate reader (Molecular Devices, Union City, CA, USA) at 590 nm. Fractional inhibitory concentration index (FICI) was used to evaluate the interaction between the antibiotic and the OMP. FICI is the sum of the FIC of the antibiotic and the FIC of the OMP. The FIC value is calculated by dividing the MIC of the agents in combination by the MIC of the agent alone. FICI ≤ 0.5 is synergistic, 0.5 < x ≤ 4 is additive, and >4 is antagonistic.

[3] = tested on: P. aeruginosa PA259-96196; assay type: cell-based, Pseudomonas aeruginosa; settings: for MICUTBLP: UTBLP alone
Procedure: as §2

[4] = tested on: P. aeruginosa PA262-101856; assay type: cell-based, Pseudomonas aeruginosa; settings: for MICUTBLP: UTBLP alone
Procedure: as §2

E. faecium ATCC 27270 = assay type: cell-based, Enterococcus faecium
Procedure: as §2

E. coli 94393 [5] = assay type: cell-based, Escherichia coli; settings: for MICUTBLP: UTBLP alone
Procedure: as §2

E. coli 94474 [6] = assay type: cell-based, Escherichia coli; settings: for MICUTBLP: UTBLP alone
Procedure: as §2

E. coli ATCC 25922 = assay type: cell-based, Escherichia coli; settings: for MICUTBLP: UTBLP alone
Procedure: as §2

S. aureus ATCC 29213 = assay type: cell-based, Staphylococcus aureus; settings: ATCC 29213, 18 h
Procedure: (§3) The in vitro antibacterial activity of the UTBLPs was assessed against wild-type and clinically isolated bacterial strains. To obtain the MIC of the compounds, the microbroth dilution susceptibility assay was performed according to the Clinical and Laboratory Standards Institute (CLSI, Wayne, PA, USA) guidelines and as previously described. Briefly, the compounds at varying concentrations were incubated with bacterial inoculum (5 × 10^5 CFU/mL final concentration) at 37 °C for 18 h. Growth in the form of turbidity was confirmed using an EMax Plus microplate reader (Molecular Devices, San Jose, CA, USA) at 590 nm.

MRSA ATCC 33592 = assay type: cell-based, Staphylococcus aureus; settings: ATCC 33592, 18 h
Procedure: as §3

E. faecalis ATCC 29212 = assay type: cell-based, Enterococcus faecalis; settings: ATCC 29212, 18 h
Procedure: as §3

[7] = tested on: P. aeruginosa PA259-96196; experiment: microbe, parasite or virus in culture; assay type: cell-based, Pseudomonas aeruginosa; settings: PA259-96196, 18 h
How it was run: as §1

[8] = tested on: P. aeruginosa PA262-101856; experiment: microbe, parasite or virus in culture; assay type: cell-based, Pseudomonas aeruginosa; settings: PA262-101856, 18 h
How it was run: as §1

[9] = UTBLP in combination with chloramphenicol
[10] = UTBLP in combination with niclosamide
[11] = UTBLP in combination with novobiocin
[12] = UTBLP in combination with rifampicin
[13] = chloramphenicol in combination with the UTBLP
[14] = niclosamide in combination with the UTBLP
[15] = novobiocin in combination with the UTBLP
[16] = rifampicin in combination with the UTBLP

MIC (E. coli 94393 [1]): 32 µg/mL (≈ 35.2 µM)
MIC (E. coli 94474 [2]): 128 µg/mL (≈ 141 µM)
MICUTBLP (P. aeruginosa PAO1; plate with chloramphenicol): > 128 µg/mL
MICUTBLP (P. aeruginosa PAO1; plate with niclosamide): > 128 µg/mL
MICUTBLP (P. aeruginosa PAO1; plate with novobiocin): > 128 µg/mL
MICUTBLP (P. aeruginosa PAO1; plate with rifampicin): > 128 µg/mL
MICUTBLP [MICcombo] (P. aeruginosa PAO1; [9]): 2 µg/mL
MICUTBLP [MICcombo] (P. aeruginosa PAO1; [10]): 4 µg/mL
MICUTBLP [MICcombo] (P. aeruginosa PAO1; [11]): 16 µg/mL
MICUTBLP [MICcombo] (P. aeruginosa PAO1; [12]): 16 µg/mL
MICantibiotic [MICcombo] (P. aeruginosa PAO1; [13]): 2 µg/mL
MICantibiotic [MICcombo] (P. aeruginosa PAO1; [14]): 4 µg/mL
MICantibiotic [MICcombo] (P. aeruginosa PAO1; [15]): 8 µg/mL
MICantibiotic [MICcombo] (P. aeruginosa PAO1; [16]): 0.5 µg/mL
MICUTBLP ([3]; plate with novobiocin): 128 µg/mL
MICUTBLP ([3]; plate with rifampicin): > 128 µg/mL
MICUTBLP [MICcombo] [3, 11]: 4 µg/mL
MICUTBLP [MICcombo] [3, 12]: 8 µg/mL
MICantibiotic [MICcombo] [3, 15]: 16 µg/mL
MICantibiotic [MICcombo] [3, 16]: 0.5 µg/mL
MICUTBLP ([4]; plate with novobiocin): > 128 µg/mL
MICUTBLP ([4]; plate with rifampicin): > 128 µg/mL
MICUTBLP [MICcombo] [4, 11]: 16 µg/mL
MICUTBLP [MICcombo] [4, 12]: 16 µg/mL
MICantibiotic [MICcombo] [4, 15]: 16 µg/mL
MICantibiotic [MICcombo] [4, 16]: 32 µg/mL
MICUTBLP (E. faecium ATCC 27270; UTBLP alone, plate with chloramphenicol): 32 µg/mL
MICUTBLP [MICcombo] (E. faecium ATCC 27270; [9]): 8 µg/mL
MICchloramphenicol [MICcombo] (E. faecium ATCC 27270; [13]): 2 µg/mL
MICUTBLP (E. coli 94393 [5]; plate with novobiocin): 32 µg/mL
MICUTBLP (E. coli 94393 [5]; plate with rifampicin): 32 µg/mL
MICUTBLP [MICcombo] (E. coli 94393 [5]; [11]): 1 µg/mL
MICUTBLP [MICcombo] (E. coli 94393 [5]; [12]): 4 µg/mL
MICantibiotic [MICcombo] (E. coli 94393 [5]; [15]): 2 µg/mL
MICantibiotic [MICcombo] (E. coli 94393 [5]; [16]): 0.125 µg/mL
MICUTBLP (E. coli 94474 [6]; plate with novobiocin): 128 µg/mL
MICUTBLP (E. coli 94474 [6]; plate with rifampicin): 128 µg/mL
MICUTBLP [MICcombo] (E. coli 94474 [6]; [11]): 4 µg/mL
MICUTBLP [MICcombo] (E. coli 94474 [6]; [12]): 2 µg/mL
MICantibiotic [MICcombo] (E. coli 94474 [6]; [15]): 1 µg/mL
MICantibiotic [MICcombo] (E. coli 94474 [6]; [16]): 0.25 µg/mL
MICUTBLP (E. coli ATCC 25922; plate with chloramphenicol): 64 µg/mL
MICUTBLP (E. coli ATCC 25922; plate with niclosamide): 64 µg/mL
MICUTBLP (E. coli ATCC 25922; plate with novobiocin): 64 µg/mL
MICUTBLP (E. coli ATCC 25922; plate with rifampicin): 64 µg/mL
MICUTBLP [MICcombo] (E. coli ATCC 25922; [9]): 16 µg/mL
MICUTBLP [MICcombo] (E. coli ATCC 25922; [10]): 0.5 µg/mL
MICUTBLP [MICcombo] (E. coli ATCC 25922; [11]): 1 µg/mL
MICUTBLP [MICcombo] (E. coli ATCC 25922; [12]): 2 µg/mL
MICantibiotic [MICcombo] (E. coli ATCC 25922; [13]): 0.25 µg/mL
MICantibiotic [MICcombo] (E. coli ATCC 25922; [14]): 2 µg/mL
MICantibiotic [MICcombo] (E. coli ATCC 25922; [15]): 0.5 µg/mL
MICantibiotic [MICcombo] (E. coli ATCC 25922; [16]): 0.063 µg/mL
MIC (S. aureus ATCC 29213): 64 µg/mL (≈ 70.3 µM)
MIC (MRSA ATCC 33592): 64 µg/mL (≈ 70.3 µM)
MIC (E. faecalis ATCC 29212): 32 µg/mL (≈ 35.2 µM)
MIC [7]: 128 µg/mL (≈ 141 µM)
MIC [8]: > 128 µg/mL
SMILES: CCCCCCCC(=O)NCCCC[C@H](NC(=O)CCCCCCC)C(=O)N[C@@H](CCCCN)C(=O)N[C@@H](CCCCN)C(=O)N[C@@H](CCCCN)C(=O)N[C@@H](CCCCN)C(N)=O [UTBLP 5] (Octanoyl-K(Octanoyl)KKKK-NH2)
Interpretation (P. aeruginosa PAO1; UTBLP + chloramphenicol): Synergy (FICI ≤ 0.5 is synergistic)
Interpretation (P. aeruginosa PAO1; UTBLP + niclosamide): Synergy (FICI ≤ 0.5 is synergistic)
Interpretation (P. aeruginosa PAO1; UTBLP + novobiocin): Synergy (FICI ≤ 0.5 is synergistic)
Interpretation (P. aeruginosa PAO1; UTBLP + rifampicin): Synergy (FICI ≤ 0.5 is synergistic)
Interpretation ([3]; UTBLP + novobiocin): Synergy (FICI ≤ 0.5 is synergistic)
Interpretation ([3]; UTBLP + rifampicin): Synergy (FICI ≤ 0.5 is synergistic)
Interpretation ([4]; UTBLP + novobiocin): Synergy (FICI ≤ 0.5 is synergistic)
Interpretation ([4]; UTBLP + rifampicin): Synergy (FICI ≤ 0.5 is synergistic)
Interpretation (E. faecium ATCC 27270; UTBLP + chloramphenicol): Additive (0.5 < x ≤ 4 is additive)
Interpretation (E. coli 94393 [5]; UTBLP + novobiocin): Synergy (FICI ≤ 0.5 is synergistic)
Interpretation (E. coli 94393 [5]; UTBLP + rifampicin): Synergy (FICI ≤ 0.5 is synergistic)
Interpretation (E. coli 94474 [6]; UTBLP + novobiocin): Synergy (FICI ≤ 0.5 is synergistic)
Interpretation (E. coli 94474 [6]; UTBLP + rifampicin): Synergy (FICI ≤ 0.5 is synergistic)
Interpretation (E. coli ATCC 25922; UTBLP + chloramphenicol): Synergy (FICI ≤ 0.5 is synergistic)
Interpretation (E. coli ATCC 25922; UTBLP + niclosamide): Synergy (FICI ≤ 0.5 is synergistic)
Interpretation (E. coli ATCC 25922; UTBLP + novobiocin): Synergy (FICI ≤ 0.5 is synergistic)
Interpretation (E. coli ATCC 25922; UTBLP + rifampicin): Synergy (FICI ≤ 0.5 is synergistic)

From publication PMC8963254, “Effects of Lysine N-ζ-Methylation in Ultrashort Tetrabasic Lipopeptides (UTBLPs) on the Potentiation of Rifampicin, Novobiocin, and Niclosamide in Gram-Negative Bacteria” (Antibiotics, 2022)
